Reference: patent US7534915B2, “Non-symmetrical gelling agent” (Applied Nanosystems B.V., priority 2003, dated 2009)
Blank lines part the entries; values can stand above or below the compound they belong to.

Assays:
[1] = TEM particle size of a compound of interest included in gels of gelator 12; type: physicochemical; conditions: for Crystal size, reference without gelator: DMSO/H2O 100 μL/900 μL
Procedure: Transmission Electron Microscopy Measurements
A gel was prepared following one of the procedures described above. A small amount of the gel was carefully deposited on a carbon-coated copper grid, using a spatula. The excess solution was blotted with a filter paper, leaving a thin sample film. The samples were examined using a JEOL 1200EX (80-100 kV) and pictures were taken of representative parts. The samples were all prepared in duplo.
To a solution containing 4 mg (6.0×10^−3 mmol) of gelator 12 (CHex(AmPhe-6AQ)(AmEtOEtOH)2) and 1.22 mg (6.0×10^−3 mmol) of pyrene in 100 μL of DMSO, 900 μL of distilled water were quickly added.
To determine the stability in time of pyrene particles in a gel, samples were prepared as described in the previous paragraph and examined with TEM after 7 days, 18 days, 1 month and 2 months. As reference, samples containing only pyrene in DMSO/H2O (100 μL/900 μL) were also prepared. Moreover, to determine the effect of the gelator in solution, i.e., not in the gel, samples containing 4 mg (6.0×10^−3 mmol) of gelator 12 (CHex(AmPhe-6AQ)(AmEtOEtOH)2), 1.22 mg (6.0×10^−3 mmol) of pyrene, 100 μL of DMSO and 900 μL of 1N HCl were prepared. […] All samples were kept at room temperature, in the dark.
To a solution containing 1.96 mg (2.9×10^−3 mmol) of gelator 12 (CHex(AmPhe-6AQ)(AmEtOEtOH)2) and 1.0 mg (2.9×10^−3 mmol) of danazol in 50 μL of DMSO, 950 μL of distilled water were quickly added. […] In a reference sample consisting only of danazol in 100 μL of DMSO and 900 μL of distilled water, rod-shaped danazol particles are 0.5-10 μm wide and 15-53 μm long. […]

[2] = Gel test (vial inversion); type: physicochemical
Procedure: A weighed amount of solid was dissolved in 0.5 or 1 ml of the solvent in a closed 2.0 ml vial using a heating gun or a heating block and subsequently slowly cooled to room temperature by standing in the air. Gelation was determined by turning the vial upside down and gentle shaking. If no flow of the mass was observed, the mass was defined to be a gel. Alternatively, a weighed amount of solid was dissolved in 1 mL of solvent by the addition of acid or base. The subsequent addition of base or acid then gave gelation. Alternatively, a weighed amount of solid was dissolved in a small amount of solvent. The subsequent addition of a large amount of non-solvent then gave gelation. Alternatively, the solution of gelator/thickener was added to the non-solvent, resulting in gelation. Alternatively, a weighed amount of solid was mixed with 1 mL of solvent by sonication. After stopping the sonication, gelation occurred. Alternatively a weighed amount of solid was mixed with 1 mL of solvent by brief vortexing after which gelation occurred. Alternatively a weighed amount of solid was mixed with 1 mL of solvent after which gelation occurred.

[3] = test system: α-chymotrypsin; assay: α-chymotrypsin-induced cleavage followed by fluorescence detection of released 6-AQ; type: biochemical; conditions: for Km / Vmax: from Lineweaver-Burke and Eadie-Hofstee plots, for 12 only points where V still increased; for Cleavage (6-AQ formation) by α-chymotrypsin: substrate 7.54 mM (12 as gel, 39 as solution), α-chymotrypsin 40 mM as printed
Source text: In order to investigate the enzymatic cleavage of a gelator-drug conjugate, we selected the enzyme α-chymotrypsin, which is capable of cleaving amide bonds at the C═O terminus of L-phenylalanine-based substrates like compound 12 (CHex(AmPhe-6AQ)(AmEtOEtOH)2), resulting here in the release of the fluorogenic “model drug” 6-aminoquinoline (6-AQ). This system allows easy monitoring of the cleavage kinetics owing to the fact that the excitation and emission maxima for the amide and amino form of this compound are adequately separated (amide form: λex=315 nm, λem=370 nm, amine form: λex=339 nm, λem=550 nm).
Gelator 12 was dissolved in a small amount of DMSO (100 μL), whereas α-chymotrypsin was dissolved in a buffer solution (Tris-HCl, 0.1 M, pH 7.75, 900 μL). […] In order to determine the effect of gelation on the enzymatic cleavage, the water-soluble, non-gelating, model substrate 39 was synthesized with a structure similar to that of gelator 12.
Fluorescence experiments were carried out in which the α-chymotrypsin-induced cleavage of compounds 12 and 39 was followed through the detection of 6-AQ.
Legend to FIG. 2 (from bottom to top): Trace a: gel of gelator 12 (0.5 wt %=7.54 mM); trace b: gel of gelator 12 (0.5 wt %=7.54 mM)+α-chymotrypsin ([…]); trace c: gel of gelator 12 (0.5 wt %=7.54 mM)+compound 39 (7.54 mM)+α-chymotrypsin (40 μM); trace d: solution of compound 39 (7.54 mM)+α-chymotrypsin (40 mM)
Performing the cleavage experiments for both 12 and 39 at different substrate concentrations and plotting the initial rates as a function of the substrate concentration (i.e., 12 or 39) results in the points plotted in FIG. 3. […] The initial rates for gelator 12, however, increase up to a certain point, after which they remain the same, even at much higher concentrations. From the corresponding Lineweaver-Burke and Eadie-Hofstee plots, values for Vmax and Km could be obtained for both compounds. […] From these points, the following values were calculated. […] Using these values for Vmax and Km, the theoretical curves could be plotted for both compounds. For compound 39, the experimentally determined points fitted very well on the curve. […] Below this concentration, a sample of 12 exists as a solution. So, even though the molecules in a gel are in constant equilibrium with those in solution and the overall gelator concentration may increase well above the CGC (thus bringing about gelation), the concentration of gelator in solution can never exceed the CGC. The fact that the initial rate for 12 no longer increases once the substrate (i.e., gelator) concentration exceeds the CGC, proves that only the gelator molecules in solution can be cleaved by the enzyme.

[4] = Cryo-TEM and small angle x-ray diffraction of hydrogel fibers; type: physicochemical
Procedure: Cryo-transmission Electron Microscopy Measurements
A gel was prepared following one of the procedures described above. A small amount of the gel was carefully deposited on a bare copper grid, using a spatula. The excess solution was blotted with a filter paper, leaving a thin sample film. The grid was subsequently plunged into liquid ethane for vitrification. The vitrified specimens were transferred to a Gatan model 626 cryostage and observed in a Philips CM 120 electron microscope operating at 120 kV. The images were recorded under low-dose conditions at about −170° C. The samples were all prepared in duplo.
Presumably, the lack of (C3-)symmetry prevents the aggregation of the fibers into large bundles from taking place, and leads to the highly uniform and very low fiber diameter, the latter in turn leading to clear gel.
The left-side image is a low magnification, the right-side image a high magnification (white bar at the upper left-hand quarter in the right-side image corresponds to 4.5 nm). […] The high uniformity of the fiber thicknesses can be clearly observed in the close-up image on the right.

Compound: c1cc2ccc3cccc4ccc(c1)c2c34 [pyrene]
Crystal size, reference without gelator ([1]; after 2 months): 2-12 μm
Crystal size, reference without gelator ([1]; after 7 days, 18 days or 1 month): 0.4-9 μm
Crystal size in gel ([1]; gel of 12, 1:1, DMSO/H2O, after 1 month): ~150 nm
Particle size in gel ([1]; gel of 12, 1:1, DMSO/H2O, after 7 days, room temperature, dark): 37-185 nm
Particle size in gel ([1]; gel of 12, 1:1, DMSO/H2O, after 18 days): 30-190 nm
Crystal size, gelator in solution ([1]; with 12 1:1 in DMSO/1N HCl 100 μL/900 μL (not gelled), after 7 days): 0.2-3 μm
Size of larger crystals, gelator in solution ([1]; with 12 1:1 in DMSO/1N HCl (not gelled), after 1 month): 6 μm

Compound: C#C[C@]1(O)CC[C@H]2[C@@H]3CCC4=Cc5oncc5C[C@]4(C)[C@H]3CC[C@@]21C [danazol]
Length of rod-shaped particles, reference without gelator ([1]; DMSO 100 μL + water 900 μL): 15-53 μm
Width of rod-shaped particles, reference without gelator ([1]; DMSO 100 μL + water 900 μL): 0.5-10 μm
Presence of rod-shaped particles ([1]; freeze-dried gel of 12, 5:1): no rod-shaped particles were present
Length of rod-shaped particles in gel ([1]; gel of 12, 1:1, some particles): 9 μm
Width of rod-shaped particles in gel ([1]; gel of 12, 1:1, some particles): 0.7 μm
Presence of rod-shaped particles ([1]; gel of 12, 2:1): no rod-shaped danazol particles are present
Size of some particles in gel ([1]; gel of 12, 2:1): 2 μm
Size of very few particles in gel ([1]; gel of 12, 2:1): 10 μm
Presence of rod-shaped particles ([1]; gel of 12, 5:1): no rod-shaped particles are present
Size of some particles in gel ([1]; gel of 12, 5:1): 400 nm
Average particle size in gel ([1]; gel of 12, gelator:danazol 1:1, DMSO/water 50 μL/950 μL): 140-700 nm
Average particle size in gel ([1]; gel of 12, gelator:danazol 2:1): 28 nm
Average particle size in gel ([1]; gel of 12, gelator:danazol 5:1): 14 nm

Continued, in another order:

Solubility in water [2]: water-soluble
Gelation behaviour ([2]; water): non-gelating
Km [3]: 4.9 mM
Compound: O=C(O)CCCC(=O)N[C@@H](Cc1ccccc1)C(=O)Nc1ccc2ncccc2c1 [Compound 39, reference compound]
Vmax [3]: 22.3 µmol/min
Cleavage (6-AQ formation) by α-chymotrypsin [3]: more readily cleaved

Gel fiber thickness [4]: about 4.5 nm
Gel test ([2]; 0.3 mg/mL in H2O or PBS): clear gel
Gel test ([2]; 0.5 mg/mL in H2O/DMSO (19:1)): clear gel
Gel test ([2]; 0.6 mg/mL in H2O/EtOH (19:1)): clear gel
Gel formation ([2]; 4 mg with pyrene in DMSO 100 μL + 1N HCl 900 μL): does not gelate
Gel test ([2]; 25 mg/ml in EtOH): turbid gel
Gel formation ([2]; DMSO 100 μL + α-chymotrypsin in Tris-HCl 0.1 M pH 7.75 900 μL, rapid addition): clear, homogeneous gel
Critical gelator concentration (CGC) ([2]; H2O:DMSO=9:1): 1.5 mM
Km [3]: 1.8 mM
Cleavage (6-AQ formation) in the absence of α-chymotrypsin ([3]; gel 0.5 wt % = 7.54 mM, fluorescence at 550 nm): no cleavage
Compound: O=C(NCCOCCO)[C@@H]1C[C@H](C(=O)NCCOCCO)C[C@H](C(=O)N[C@@H](Cc2ccccc2)C(=O)Nc2ccc3ncccc3c2)C1 [Compound 12, CHex(AmPhe-6AQ)(AmEtOEtOH)2]
Vmax [3]: 4.1 µmol/min
experimentally determined Vmax ([3]; plateau of initial rate above the CGC): 1.8 µmol/min
Cleavage (6-AQ formation) by α-chymotrypsin [3]: minor cleavage

Gel test ([2]; H2O, concentration not given): clear gel
Gel test ([2]; toluene): gel
Compound: CCCCCCCCCCNC(=O)[C@H](Cc1ccccc1)NC(=O)[C@@H]1C[C@H](C(=O)O)C[C@H](C(=O)O)C1 [Compound 19, CHex(AmPheAmDecyl)(COOH)2]
